What was measured:
[1] = Measurement of Log P values by HPLC on reversed phase columns (EEC directive 79/831 Annex V.A8); assay type: physicochemical; details: LogP
Method: Measurement of Log P values as provided herein was performed according to EEC directive 79/831 Annex V.A8 by HPLC (High Performance Liquid Chromatography) on reversed phase columns with the following methods: • ^[a] Log P value is determined by measurement of LC-UV, in an acidic range, with 0.1% formic acid in water and acetonitrile as eluent (linear gradient from 10% acetonitrile to 95% acetonitrile). • ^[b] Log P value is determined by measurement of LC-UV, in a neutral range, with 0.001 molar ammonium acetate solution in water and acetonitrile as eluent (linear gradient from 10% acetonitrile to 95% acetonitrile). • ^[c] Log P value is determined by measurement of LC-UV, in an acidic range, with 0.1% phosphoric acid and acetonitrile as eluent (linear gradient from 10% acetonitrile to 95% acetonitrile).
If more than one Log P value is available within the same method, all the values are given and separated by “+”.
Calibration was done with straight-chain alkan2-ones (with 3 to 16 carbon atoms) with known Log P values (measurement of Log P values using retention times with linear interpolation between successive alkanones). Lambda-max-values were determined using UV-spectra from 200 nm to 400 nm and the peak values of the chromatographic signals

Alternaria alternata = Alternaria alternata in vitro cell test; assay type: cell-based; details: 120 h, 20 ppm of active ingredient, 5 days incubation, liquid culture, spectrometric measurement of mycelium growth, read-out: efficacy (inhibition of fungal growth)
Method: (§1) • Solvent: DMSO • Culture medium: 14.6 g anhydrous D-glucose (VWR), 7.1 g Mycological Peptone (Oxoid), 1.4 g granulated Yeast Extract (Merck), QSP 1 liter • Inoculum: spore suspension Fungicides were solubilized in DMSO and the solution used to prepare the required range of concentrations. […] A spore suspension of A. alternata was prepared and diluted to the desired spore density. Fungicides were evaluated for their ability to inhibit spore germination and mycelium growth in liquid culture assay. The compounds were added in the desired concentration to the culture medium with spores. After 5 days incubation, fungi-toxicity of compounds was determined by spectrometric measurement of mycelium growth. Inhibition of fungal growth was determined by comparing the absorbance values in wells containing the fungicides with the absorbance in control wells without fungicides.

[2] = system: Colletotrichum lindemuthianum; assay: Colletotrichum lindemuthianum in vitro cell test; assay type: cell-based; details: 144 h, 20 ppm of active ingredient, 6 days incubation, liquid culture, spectrometric measurement of mycelium growth, read-out: efficacy (inhibition of fungal growth)
Method: as §1, with “of C. lindemuthianum” for “of A. alternata”, “inhibit spores” for “inhibit spore”, “After 6” for “After 5”

Pyrenophora teres = Pyrenophora teres in vitro cell test; assay type: cell-based; details: 144 h, 20 ppm of active ingredient, 6 days incubation, liquid culture, spectrometric measurement of mycelium growth, read-out: efficacy (inhibition of fungal growth)
Method: as §1, with “P. teres” for “A. alternata”, “6” for “5”

Botrytis cinerea [3] = assay: Botrytis cinerea in vitro cell test; assay type: cell-based; details: 144 h, 20 ppm of active ingredient, 6 days incubation, liquid culture, spectrometric measurement of mycelium growth, read-out: efficacy (inhibition of fungal growth)
Method: (§2) • Solvent: DMSO • Culture medium: 1 g KH2PO4 (VWR), 1 g K2HPO4 (VWR), 0.5 g Urea (VWR), 3 g KNO3 (Prolabo), 10 g saccharose (VWR), 0.5 g MgSO4, 7H2O (Sigma), 0.07 g CaCl2, 2H2O (Prolabo), 0.2 mg MnSO4, H2O (Sigma), 0.6 mg CuSO4, 5H2O (Sigma), 7.9 mg ZnSO4, 7H2O (Sigma), 0.1 mg H3BO3 (Merck), 0.14 mg NaMoO4, 2H2O (Sigma), 2 mg thiamine (Sigma), 0.1 mg biotine (VWR), 4 mg FeSO4, 7H2O (Sigma), QSP 1 liter • Inoculum: spore suspension Fungicides were solubilized in DMSO and the solution used to prepare the required range of concentrations. […] A spore suspension of B. cinerea was prepared and diluted to the desired spore density. Fungicides were evaluated for their ability to inhibit spore germination and mycelium growth in liquid culture assay. The compounds were added in the desired concentration to the culture medium with spores. After 6 days incubation, fungi-toxicity of compounds was determined by spectrometric measurement of mycelium growth. Inhibition of fungal growth was determined by comparing the absorbance values in wells containing the fungicides with the absorbance in control wells without fungicides.

Pyricularia oryzae = assay: microbe, parasite or virus in culture; assay type: cell-based; details: 120 h, read-out: efficacy (inhibition of fungal growth)
Septoria tritici = Septoria tritici in vitro cell test; assay type: cell-based; details: Zymoseptoria tritici, 168 h; 20 ppm of active ingredient; 7 days incubation; liquid culture, spectrometric measurement of mycelium growth; read-out: efficacy (inhibition of fungal growth)
Method: as §2, with “S. tritici” for “B. cinerea”, “After 6 days incubation, fungi-toxicity of compounds was determined by spectrometric measurement of mycelium growth.” left out

Alternaria brassicae = assay: In vivo preventive test on Alternaria brassicae (leaf spot on radish or cabbage); details: 144 h, 500 ppm of active ingredient, preventive spray on young radish or cabbage plants, evaluated 6 days after inoculation, read-out: efficacy
Method: (§3) The active ingredients were made soluble and homogenized in a mixture of Dimethyl sulfoxide/Acetone//Tween®80 and then diluted in water to the desired concentration. The young plants of radish or cabbage were treated by spraying the active ingredient prepared as described above. Control plants were treated only with an aqueous solution of Acetone/Dimethyl sulfoxide/Tween® 80. After 24 hours, the plants were contaminated by spraying the leaves with an aqueous suspension of Alternaria brassicae spores.

Botrytis cinerea [4] = assay: In vivo preventive test on Botrytis cinerea (grey mould); details: 500 ppm of active ingredient, preventive spray on young gherkin or cabbage plants, evaluated 4 to 5 days after inoculation, read-out: efficacy
Method: as §3, with “gherkin” for “radish”, “Botrytis cinerea” for “Alternaria brassicae”

Sphaerotheca fuliginea = assay: In vivo preventive test on Sphaerotheca fuliginea (powdery mildew on cucurbits); details: Podosphaera fuliginea, 192 h; 500 ppm of active ingredient; preventive spray on young gherkin plants; evaluated 8 days after inoculation; read-out: efficacy
Method: as §3, with “gherkin” for “radish or cabbage”, “Sphaerotheca fuliginea” for “Alternaria brassicae”

[5] = system: Colletotrichum lindemuthianum; assay: In vivo preventive test on Colletotrichum lindemuthianum (leaf spot on bean); details: 168 h, 500 ppm of active ingredient, preventive spray on young bean plants, evaluated 7 days after inoculation, read-out: efficacy
Method: as §3, with “bean” for “radish or cabbage”, “Colletotrichum lindemuthianum” for “Alternaria brassicae”

SMILES	chromatographic logP [1]	inhibition at 20 ppm (Alternaria alternata)	inhibition at 20 ppm [2]	inhibition at 20 ppm (Pyrenophora teres)	inhibition at 20 ppm (Botrytis cinerea [3])	inhibition at 20 ppm (Pyricularia oryzae)	inhibition at 20 ppm (Septoria tritici)	pest or weed control at 500 ppm (Alternaria brassicae)	pest or weed control at 500 ppm (Botrytis cinerea [4])	pest or weed control at 500 ppm (Sphaerotheca fuliginea)	pest or weed control at 500 ppm [5]
Cc1ccc([C@@H]2CON=C(c3nc(C)ncc3Oc3cccc(Cl)c3)N2)c(C)c1 (racemic) [Compound I-034]	3.8	90 to 100%	70 to 79%	90 to 100%	90 to 100%	–	–	–	–	–	–
Cc1ncc(Oc2cccc(Cl)c2)c(C2=NOC[C@@H](c3ccc4c(c3)OCCO4)N2)n1 (racemic) [Compound I-031]	3.04	90 to 100%	90 to 100%	90 to 100%	90 to 100%	90 to 100%	–	–	–	–	–
CSc1ncc(Oc2cccc(C(F)(F)F)c2)c(C2=NOC[C@@H](Cc3ccc(C)cc3Cl)N2)n1 (racemic) [Compound I-020]	5.14	–	90 to 100%	90 to 100%	90 to 100%	–	70 to 79%	90 to 100%	90 to 100%	90 to 100%	–
Cc1ccc(C[C@@H]2CON=C(c3nc(C)ncc3Oc3cccc(OC(F)F)c3)N2)c(C)c1 (racemic) [Compound I-007]	3.94	70 to 79%	90 to 100%	90 to 100%	90 to 100%	–	–	90 to 100%	90 to 100%	90 to 100%	90 to 100%
Cc1ncc(Oc2cccc(C(F)(F)F)c2)c(C2=NOC[C@@H](Cc3ccc(OC(F)F)cc3Cl)N2)n1 (racemic) [Compound I-027]	4.15	90 to 100%	–	90 to 100%	90 to 100%	–	90 to 100%	90 to 100%	90 to 100%	90 to 100%	90 to 100%
Cc1ncc(Oc2cccc(Cl)c2)c(C2=NO[C@@H](F)[C@@H](c3ccc(Cl)cc3)N2)n1 (racemic) [Compound I-028]	3.79	90 to 100%	–	90 to 100%	90 to 100%	90 to 100%	90 to 100%	–	–	–	–
Cc1ncc(Oc2cccc(Cl)c2)c(C2=NOC(C)(C)[C@@H](c3ccc(F)cc3F)N2)n1 (racemic) [Compound I-035]	3.84	–	–	–	–	–	–	–	–	–	–
Cc1ncc(Oc2cccc(C(F)(F)F)c2)c(C2=NOC[C@@H](Cc3csc(C(F)(F)F)c3)N2)n1 (racemic) [Compound I-015]	4.17	70 to 79%	90 to 100%	90 to 100%	90 to 100%	–	–	80 to 89%	70 to 79%	80 to 89%	90 to 100%
Cc1ccc(C[C@H](CCl)NC(=O)c2nc(C)ncc2Oc2cccc(C3CC3)c2F)c(C)c1 (racemic) [Compound 10-11]	4.86	–	–	–	–	–	–	–	–	–	–
COc1ccc(C[C@@H]2CON=C(c3nc(C)ncc3Oc3cccc(C(F)(F)F)c3)N2)c(Cl)c1 (racemic) [Compound I-012]	4.08	–	–	90 to 100%	90 to 100%	–	–	90 to 100%	90 to 100%	90 to 100%	90 to 100%
Cc1ncc(Oc2cccc(C3CC3)c2F)c(C(=O)O)n1 [Compound 1-07]	2.2	–	–	–	–	–	–	–	–	–	–
Cc1ccc(C[C@H](CCl)NC(=O)c2nc(C)ncc2Oc2cccc(Cl)c2F)c(Cl)c1 (racemic) [Compound 10-05]	4.7	–	–	–	–	–	–	–	–	–	–
Cc1ncc(Oc2cccc(Cl)c2)c(C(=O)O)n1 [Compound 1-03]	2	–	–	–	–	–	–	–	–	–	–
